{"source": "patent US7276511B2", "about": "“Benzylamine derivative” (Zeria Pharmaceutical Co., Ltd., priority 2003, dated 2007)", "origin": "cited, not measured here", "key": {"NK-1 receptor": {"target": "NK-1 receptor (Homo sapiens, UniProt P25103)", "sequence (P25103 whole entry, species assumed)": "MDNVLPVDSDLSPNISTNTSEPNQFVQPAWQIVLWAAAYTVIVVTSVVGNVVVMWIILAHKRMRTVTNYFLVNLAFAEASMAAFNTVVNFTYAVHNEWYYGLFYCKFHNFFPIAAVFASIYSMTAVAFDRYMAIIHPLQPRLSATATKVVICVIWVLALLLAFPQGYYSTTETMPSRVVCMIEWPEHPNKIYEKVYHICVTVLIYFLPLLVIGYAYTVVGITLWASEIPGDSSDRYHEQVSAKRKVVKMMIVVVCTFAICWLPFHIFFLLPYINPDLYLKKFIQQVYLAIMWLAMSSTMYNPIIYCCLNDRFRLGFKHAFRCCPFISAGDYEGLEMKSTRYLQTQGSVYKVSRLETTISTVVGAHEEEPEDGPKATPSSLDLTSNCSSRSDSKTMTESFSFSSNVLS", "settings": "known from Patent Document 4; cited from earlier work"}, "NK-2 receptor": {"target": "T1, NK-2 receptor (Homo sapiens, UniProt P21452)", "T1 sequence (P21452 1-398)": "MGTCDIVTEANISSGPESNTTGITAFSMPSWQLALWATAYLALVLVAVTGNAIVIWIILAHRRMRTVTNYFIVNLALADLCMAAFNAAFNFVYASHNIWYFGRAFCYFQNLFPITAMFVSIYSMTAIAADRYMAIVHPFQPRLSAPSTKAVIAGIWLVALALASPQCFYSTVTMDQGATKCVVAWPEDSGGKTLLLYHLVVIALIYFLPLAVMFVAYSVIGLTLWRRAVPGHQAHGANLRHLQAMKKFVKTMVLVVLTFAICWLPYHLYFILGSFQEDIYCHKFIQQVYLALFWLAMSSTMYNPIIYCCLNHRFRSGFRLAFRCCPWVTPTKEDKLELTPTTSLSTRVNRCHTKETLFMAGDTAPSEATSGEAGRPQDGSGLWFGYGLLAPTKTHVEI", "settings": "in vitro for (B); known from Patent Documents 2 and 4; cited from earlier work"}}, "data": [{"smiles": "COc1cc(C(=O)N2CCO[C@](CCN3CCCC4(C3)c3ccccc3C[S+]4[O-])(c3ccc(Cl)c(Cl)c3)C2)cc(OC)c1OC", "note": "(some centres unmarked) [(D)]", "values": [{"measurement": "antagonistic activity against NK-1 receptor", "setting": "NK-1 receptor", "result": "excellent antagonistic activity"}, {"measurement": "antagonistic activity against NK-2 receptor", "setting": "NK-2 receptor", "result": "excellent antagonistic activity"}]}]}
